The values that follow come from paper PMC3912022, “A Fluorescence-Based Assay for Measuring the Redox Potential of 5-Lipoxygenase Inhibitors” (PLoS ONE, 2014).

Molecules are shown by their SMILES. “Also recorded” adds a separate entry of the source. Where only a bound is given, the exact number is not on record here.

Type in all cases: biochemical
Assay [1] addresses T1, Human recombinant 5-LO (Homo sapiens, UniProt P09917).
T1 construct: purchased Cayman Chemical
T1 sequence (P09917 1-674): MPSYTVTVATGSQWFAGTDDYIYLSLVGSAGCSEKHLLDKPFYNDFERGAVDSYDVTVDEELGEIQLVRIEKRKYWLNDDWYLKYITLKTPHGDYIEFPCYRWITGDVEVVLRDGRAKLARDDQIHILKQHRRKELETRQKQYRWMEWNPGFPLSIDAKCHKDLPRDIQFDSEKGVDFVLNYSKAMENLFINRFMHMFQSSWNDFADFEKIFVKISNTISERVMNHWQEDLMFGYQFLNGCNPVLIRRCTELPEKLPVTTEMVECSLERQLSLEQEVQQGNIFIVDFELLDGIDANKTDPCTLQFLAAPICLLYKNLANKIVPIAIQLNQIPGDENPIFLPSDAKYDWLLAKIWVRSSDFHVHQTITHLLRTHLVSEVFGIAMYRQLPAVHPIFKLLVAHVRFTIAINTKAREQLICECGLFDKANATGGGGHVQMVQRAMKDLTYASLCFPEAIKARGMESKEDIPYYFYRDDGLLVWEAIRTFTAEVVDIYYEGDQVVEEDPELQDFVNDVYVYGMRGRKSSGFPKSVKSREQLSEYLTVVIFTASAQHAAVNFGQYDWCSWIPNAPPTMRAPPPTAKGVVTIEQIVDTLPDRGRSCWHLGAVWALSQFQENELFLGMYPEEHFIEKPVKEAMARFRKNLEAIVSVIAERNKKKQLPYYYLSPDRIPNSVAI
Briefly: Redox absorbance assay (13(S)-HpODE absorbance at 234 nm, pseudo-peroxidase activity). The conditions noted are these: for Redox absorbance, Δabs: absorbance at 234 nm, change over 180 seconds, average ± SD of triplicate. An excerpt:
(§1) Lipid peroxide is consumed when 5-LO is activated to the ferric iron form. The enzyme remains activated during the dioxygenation reaction cycle. If a redox inhibitor is present, it reduces the catalytic iron into the ferrous form and inhibits the enzyme reaction. Another lipid peroxide must be consumed to re-activate 5-LO to the ferric form. As a result, reductions in the amount of lipid peroxide in the reaction mixture signify redox activity. […] The absorbance-based method measures the amount of peroxide by its absorbance at 234 nm, and the fluorescence-based method measures it by analyzing its reaction with H2DCFDA.
The redox absorbance assay was carried out as described by Zweifel, et al.. Specifically, 10 µl of 1 mM inhibitor solution was mixed with 490 µl of 20 µM 13-HpODE solution. After 3 minutes of incubation at room temperature, the solution was transferred to a cuvette. The reaction started when 500 µl of the 20 unit/ml enzyme solution was added to the peroxide-inhibitor mixture in the cuvette. The absorbance of 13(S)-HpODE at 234 nm was measured immediately after mixing, using a SpectraMax M5 spectrophotometer. Data points were collected for 3 minutes. The reaction buffer consisted of 50 mM potassium phosphate buffer (pH 7.6), 0.1 mM EDTA, 100 µM ATP, and 0.3 mM CaCl2.
The accuracy and efficacy of the redox absorbance assay were determined by testing the selected compounds. The absorbance of 13(S)-HpODE was measured at 234 nm, and the values were recorded every second for 3 minutes.
In theory, because the extinction coefficient of 13(S)-HpODE at 234 nm is 23,000 M^−1 cm^−1, 10 µM 13(S)-HpODE contributes a maximum of 0.23 in absorbance.

Assay [2] addresses T1, Human recombinant 5-LO. Kind of assay: Redox fluorescence assay (remaining 13(S)-HpODE by H2DCFDA fluorescence after pseudo-peroxidase reaction).
Source text: as §1
H2DCF-DA (60 µM) was pre-cleaved by 5-LO crude lysate in the reaction buffer (50 mM Tris, pH 7.5, 2 mM ethylenediaminetetraacetic acid [EDTA], 2 mM CaCl2, and 10 µM adenosine triphosphate [ATP]) for more than 10 minutes before the main reaction, as previously reported. In a 384-well plate, 10 µl of 450 mU/µl enzyme solution was distributed and mixed with 10 µl of inhibitor solution with various concentrations. 13(S)-HpODE (10 µM; 20 µl) was added to each well to start the reaction. After 3 minutes, pre-cleaved H2DCF-DA dye (20 µl) was added and incubated for more than 10 minutes. The fluorescence signal was measured using a fluorometer at excitation and emission wavelengths of 485 and 530 nm, respectively. All steps were carried out at room temperature.
The highest and lowest compound concentrations in the serially diluted set were 100 µM and 1.69 nM, respectively. […] The final DMSO amount in the reaction mixture was kept at 1% throughout the experiments. […] Four wells without any inhibitors represented the “100% peroxide” control wells, and the average fluorescence values in the control wells were used for normalization of fluorescence data. The concentration points were duplicated in each test and the concentration-dependent fluorescence data were fitted with three-parameter logistic regression in Prism using the top and bottom constraints of 100 and 0, respectively.

The target in assay [3] is T1, Human recombinant 5-LO. Kind of assay: Redox absorbance assay (13(S)-HpODE absorbance at 234 nm, pseudo-peroxidase activity).
The mark [4] stands for this setting: 10 µM inhibitor, 234 nm, 3 min kinetic curve, Figure 2.

Regarding `CC(Cc1ccc(O)c(O)c1)C(C)Cc1ccc(O)c(O)c1` (centres unmarked) [NDGA, 4,4′-(2,3-dimethyl-1,4-butanediyl)bis-1,2-benzenediol], in assay [1] (setting [4]), the “absorbance pattern over time (redox / non-redox pattern)” value is on record as “increases in the absorbance assay”. Also, the “Redox absorbance, Δabs” value in assay [1] (10 µM inhibitor) stood at 0.009±0.007.

For orientation: EC50 means the concentration that produces a half-maximal response. In the case of `N#CC(=Cc1ccc(O)c(O)c1)C(=O)OCC=Cc1ccccc1` [CDC, cinnamyl 3,4-dihydroxy-alpha-cyanocinnamate], the EC50 in assay [2] was 0.13 ± 0.17 µM. The “absorbance pattern over time (redox / non-redox pattern)” value in assay [1] (setting [4]) is recorded as “perfect non-redox pattern; also recorded: increases in the absorbance assay”. For the same molecule, in assay [1] (10 µM inhibitor), the “Redox absorbance, Δabs” value stood at 0.015±0.005. Moreover, in assay [3] (buffer of the redox fluorescence assay, Figure 4-C), the “redox activity in absorbance assay carried out in the fluorescence assay buffer” value is “redox activity was not detected”.

In the case of `CCCCCCC(Sc1nc(Cl)cc(Nc2cccc(C)c2C)n1)C(=O)O` (centres unmarked) [YS121, 2-[[4-chloro-6-[(2,3-dimethylphenyl)amino]-2-pyrimidinyl]thio]-octanoic acid], the EC50 in assay [2] is 77.2 ± 35.1 µM. The “Redox absorbance, Δabs” value in assay [1] (10 µM inhibitor) came to 0.008±0.005.

As for `O=C(O)C=Cc1ccc(O)c(O)c1` [Caffeic acid, 3,4-dihydroxy cinnamic acid], the “redox activity less than that of the stronger redox inhibitors” value in assay [2] (fluorescence assay, relative to stronger redox inhibitors) was 60%. Besides, the “absorbance pattern over time (redox / non-redox pattern)” value in assay [1] (setting [4]) is given as “no changes in absorbance over time”. Besides, the “Redox absorbance, Δabs” value in assay [1] (10 µM inhibitor) was found to be 0.005±0.003.

Regarding `COc1ccc(/C=C2\SC(c3ccc(Cl)cc3)=NC2=O)cc1` [CAY10649, (Z)-2-(4-chlorophenyl)-5-(4-methoxybenzylidene)thiazol-4(5H)-one], the EC50 in assay [2] was over 100 µM. Moreover, the “Redox absorbance, Δabs” value in assay [1] (10 µM inhibitor) was 0.014±0.011.

As to `Cn1nccc1-c1ccc(Sc2cccc(C3(C(N)=O)CCOCC3)c2)cc1` [PF4191834], the EC50 in assay [2] is over 100 µM. Besides, in assay [1] (10 µM inhibitor), the “Redox absorbance, Δabs” value was 0.015±0.005.

As to `CC(c1cc2ccccc2s1)N(O)C(N)=O` (centres unmarked) [Zileuton, N-[1-benzo(b)thien-2-ylethyl]-N-hydroxy-urea], in assay [1] (setting [4]), the “absorbance pattern over time (redox / non-redox pattern)” value is “clear redox pattern” and the reduction in absorbance was determined as 0.042. The “Redox absorbance, Δabs” value in assay [1] (10 µM inhibitor) is listed as −0.025±0.018. For the same molecule, the “share of the decrease in absorbance in the first 20 seconds” value in assay [1] (first 20 seconds of the reaction, Figure 2) is “about 50%”. Further, the “absorbance pattern in substrate-depleted conditions” value in assay [3] (80 minutes after the start of the reaction, 234 nm, Figure 4) is “increased slowly over time”.
